Results: ChEMBL document CHEMBL6153054, “Synthesis and discovery of simplified pleurotin analogs bearing tricyclic core as novel thioredoxin reductase inhibitors” (Eur J Med Chem, 2025)
pIC50: −log10 of the molar value. The source made the active and inactive calls. The rule behind the calls is not given here.

Key:
[1] = system: HepG2; assay: Antiproliferative activity against human HepG2 cells assessed as reduction in cell growth after 72 hrs by MTT assay; format: functional, cell-based; settings: HepG2, 72 h
[2] = system: MCF7; assay: Antiproliferative activity against human MCF7 cells assessed as reduction in cell growth after 72 hrs by MTT assay; format: functional, cell-based; settings: MCF7, 72 h
[3] = species on record: Homo sapiens; assay: Inhibition of TrxR (unknown origin) at 5 uM by […]-reagent based assay relative to control
[4] = Inhibition of TrxR (unknown origin) by […]-reagent based assay; parameters: species or system Homo sapiens
[5] = Inhibition of TrxR (unknown origin); parameters: species or system Homo sapiens
[6] = species on record: Homo sapiens; assay: Inhibition of TrxR (unknown origin) at 8 uM by […]-reagent based assay relative to control
[7] = system: HepG2; assay: Inhibition of TrxR in human HepG2 cells assessed as decrease in green fluorescence at 12.5 to 50 uM incubated for 24 hrs by immunofluorescence assay; format: cell-based; settings: dose 12.5-50 µM
[8] = system: HepG2; assay: Inhibition of TrxR in human HepG2 cells incubated for 24 hrs by immunofluorescence assay; format: cell-based; settings: dose 12.5-50 µM
[9] = system: HepG2; assay: Induction of intracellular ROS generation in human HepG2 cells assessed as increase in green fluorescence at 6.25 to 12.5 uM incubated for 6 hrs by DCFH-DA probe based fluorescence microscopic analysis; format: functional, cell-based; settings: dose 6.25-12.5 µM
[10] = system: HepG2; assay: Induction of intracellular ROS generation in human HepG2 cells assessed as increase in red fluorescence at 6.25 to 12.5 uM incubated for 6 hrs by DHE probe based fluorescence microscopic analysis; format: functional, cell-based; settings: dose 6.25-12.5 µM
[11] = system: HepG2; assay: Induction of intracellular ROS generation in human HepG2 cells at 6.25 uM incubated for 3 to 12 hrs by DCFH-DA probe based fluorescence microscopic analysis; format: functional, cell-based; settings: time 3-12 hrs
[12] = system: HepG2; assay: Induction of apoptosis in human HepG2 cells assessed as viable cells at 12.5 uM incubated for 24 hrs by Annexin V/PI staining based flow cytometry analysis (reference value: 94.9%); format: functional; settings: read-out: Activity
[13] = system: HepG2; assay: Induction of apoptosis in human HepG2 cells assessed as viable cells at 25 uM incubated for 24 hrs by Annexin V/PI staining based flow cytometry analysis (reference value: 94.9%); format: functional; settings: read-out: Activity
[14] = system: HepG2; assay: Induction of apoptosis in human HepG2 cells assessed as viable cells at 50 uM incubated for 24 hrs by Annexin V/PI staining based flow cytometry analysis (reference value: 94.9%); format: functional; settings: read-out: Activity
[15] = system: HepG2; assay: Induction of apoptosis in human HepG2 cells assessed as early apoptotic cells at 12.5 uM incubated for 24 hrs by Annexin V/PI staining based flow cytometry analysis (reference value: 3.64%); format: functional
[16] = system: HepG2; assay: Induction of apoptosis in human HepG2 cells assessed as early apoptotic cells at 25 uM incubated for 24 hrs by Annexin V/PI staining based flow cytometry analysis (reference value: 3.64%); format: functional
[17] = system: HepG2; assay: Induction of apoptosis in human HepG2 cells assessed as early apoptotic cells at 50 uM incubated for 24 hrs by Annexin V/PI staining based flow cytometry analysis (reference value: 3.64%); format: functional
[18] = system: HepG2; assay: Induction of apoptosis in human HepG2 cells assessed as late apoptotic cells at 12.5 uM incubated for 24 hrs by Annexin V/PI staining based flow cytometry analysis (reference value: 1.30%); format: functional
[19] = system: HepG2; assay: Induction of apoptosis in human HepG2 cells assessed as late apoptotic cells at 25 uM incubated for 24 hrs by Annexin V/PI staining based flow cytometry analysis (reference value: 1.30%); format: functional
[20] = system: HepG2; assay: Induction of apoptosis in human HepG2 cells assessed as late apoptotic cells at 50 uM incubated for 24 hrs by Annexin V/PI staining based flow cytometry analysis (reference value: 1.30%); format: functional
[21] = system: HepG2; assay: Induction of apoptosis in human HepG2 cells assessed as necrotic cells at 12.5 uM incubated for 24 hrs by Annexin V/PI staining based flow cytometry analysis (reference value: 0.21%); format: functional
[22] = system: HepG2; assay: Induction of apoptosis in human HepG2 cells assessed as necrotic cells at 25 uM incubated for 24 hrs by Annexin V/PI staining based flow cytometry analysis (reference value: 0.21%); format: functional
[23] = system: HepG2; assay: Induction of apoptosis in human HepG2 cells assessed as necrotic cells at 50 uM incubated for 24 hrs by Annexin V/PI staining based flow cytometry analysis (reference value: 0.21%); format: functional
[24] = system: HepG2; assay: Induction of apoptosis in human HepG2 cells assessed as late apoptotic cells incubated for 24 hrs by Annexin V/PI staining based flow cytometry analysis; format: functional, cell-based; settings: dose 12.5-50 µM
[25] = system: HepG2; assay: Induction of apoptosis in human HepG2 cells assessed as early apoptotic cells incubated for 24 hrs by Annexin V/PI staining based flow cytometry analysis; format: functional, cell-based; settings: dose 12.5-50 µM
[26] = Inhibition of TrxR in human SGC-7901 cells; format: cell-based

## C[C@@]12CCCC(=O)[C@@H]1CC1=C(C2)C(=O)C=CC1=O
[1]
  pIC50: 4.20
[2]
  pIC50: 4.51
[3]
  inhibition: 18.5%

## C=C1CCC[C@@]2(C)CC3=C(C[C@@H]12)C(=O)C=CC3=O [CORDIACHROME B]
[1]
  pIC50: < 4.00
[2]
  pIC50: 4.23
[3]
  inhibition: 19.6%

## COc1ccc([C@@]2(O)CCC[C@@]3(C)CC4=C(C[C@H]32)C(=O)C=CC4=O)cc1
[1]
  pIC50: < 4.00
[2]
  pIC50: 4.76
[3]
  inhibition: 9.8%

## C[C@@]12CCC[C@](O)(c3ccccc3)[C@@H]1CC1=C(C2)C(=O)C=CC1=O
[1]
  pIC50: 4.47
[2]
  pIC50: 4.62
[3]
  inhibition: 19.6%

## C=C1C(=O)O[C@H]2[C@H]1CCC(C)=C1CC[C@@](C)(O)[C@@H]12 [MICHELIOLIDE]
[1]
  pIC50: 4.96
[2]
  pIC50: 4.63
[3]
  inhibition: 34.2%
[4]
  pIC50: 5.21
[5]
  pIC50: 5.21

## C[C@@]12CCC[C@@H](O)[C@@H]1CC1=C(C2)C(=O)C=CC1=O
[1]
  pIC50: 4.44
[2]
  pIC50: 4.81
[3]
  inhibition: 34.9%

## C[C@@]12CCC[C@](O)(c3ccc(C(F)(F)F)cc3)[C@@H]1CC1=C(C2)C(=O)C=CC1=O
[1]
  pIC50: 4.16
[2]
  pIC50: 4.87
[3]
  inhibition: 15.7%

## CCc1ccc([C@@]2(O)CCC[C@@]3(C)CC4=C(C[C@H]32)C(=O)C=CC4=O)cc1
[1]
  pIC50: 4.33
[2]
  pIC50: 4.71
[3]
  inhibition: 19.6%

## C[C@@]12CCC[C@@H](C(=O)O)[C@@H]1CC1=C(C2)C(=O)C=CC1=O
[1]
  pIC50: 4.56
[2]
  pIC50: 4.36
[3]
  inhibition: 21.6%

## C[C@H]1CO[C@H]2C3=C(C(=O)C=CC3=O)[C@@H]3OC(=O)[C@H]4CC[C@@H]5[C@H]1CC[C@@]52[C@@H]43
[1]
  pIC50: 4.26
[2]
  pIC50: < 4.00
[5]
  pIC50: 6.77

## Cc1ccc([C@@]2(O)CCC[C@@]3(C)CC4=C(C[C@H]32)C(=O)C=CC4=O)cc1
[1]
  pIC50: < 4.00
[2]
  pIC50: 4.43
[3]
  inhibition: 11.8%

## C[C@@]12CCC[C@](O)(c3ccc(C#N)cc3)[C@@H]1CC1=C(C2)C(=O)C=CC1=O
[1]
  pIC50: 4.71
[2]
  pIC50: 4.55
[3]
  inhibition: 71.9%
[4]
  pIC50: 5.46
[6]
  inhibition: 100%
[7]
  inhibition: Active
[8]
  inhibition: Dose-dependent-effect
[9]
  Activity: Active
[10]
  Activity: Active
[11]
  Activity: Active
[12]
  viability at 12.5 µM: 92.2%
[13]
  viability at 25 µM: 81.3%
[14]
  viability at 50 µM: 54%
[15]
  Activity: 5.54%
[16]
  Activity: 13.9%
[17]
  Activity: 22.7%
[18]
  Activity: 1.82%
[19]
  Activity: 3.39%
[20]
  Activity: 12.6%
[21]
  Activity: 0.3%
[22]
  Activity: 1.39%
[23]
  Activity: 10.7%
[24]
  Activity: Dose-dependent-effect
[25]
  Activity: Dose-dependent-effect

## C[C@@]12CCC[C@@H](CO)[C@@H]1CC1=C(C2)C(=O)C=CC1=O
[1]
  pIC50: 4.14
[2]
  pIC50: 4.36
[3]
  inhibition: 13.7%

## C[C@@]12CCC[C@](O)(c3ccoc3)[C@@H]1CC1=C(C2)C(=O)C=CC1=O
[1]
  pIC50: < 4.00
[2]
  pIC50: < 4.00

## C[C@@]12CCC[C@](O)(c3ccccn3)[C@@H]1CC1=C(C2)C(=O)C=CC1=O
[1]
  pIC50: 4.34
[2]
  pIC50: 4.54
[3]
  inhibition: 23.5%

## COc1ccccc1/C=C/C(=O)/C=C/c1ccccc1OC
[26]
  pIC50: ~4.30

## C[C@@]12CCCC(=O)[C@@H]1[C@H](O)C1=C(C2)C(=O)C=CC1=O
[1]
  pIC50: 4.31
[2]
  pIC50: 4.49
[3]
  inhibition: 60.4%

## C=CC(=O)O[C@@H]1CCC[C@@]2(C)CC3=C(C[C@@H]12)C(=O)C=CC3=O
[1]
  pIC50: 4.22
[2]
  pIC50: 4.79
[3]
  inhibition: 19.7%

## C=CC(=O)O[C@@H]1C2=C(C[C@]3(C)CCCC(=O)[C@H]13)C(=O)C=CC2=O
[1]
  pIC50: < 4.00
[2]
  pIC50: < 4.00
